Source: US11207312B2, “Metallo-beta-lactamase inhibitors and methods of use thereof” (priority 2017, dated 2021)

Legend:
NDM-1 = NDM-1 (Klebsiella pneumoniae, UniProt C7C422); assay: biochemical; assay type: biochemical; conditions: CCF2-FA fluorescence assay, 2 hours at 25° C.
Procedure, shortened: (§1)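 In 100 mM phosphate pH 7 containing Tween-20 and ZnSO4, NDM-1 (1 pM), IMP-1 (2 pM) or VIM-1 (30 pM) hydrolysed 1.25 μM CCF2-FA over 2 hours at 25° C with inhibitor present. Readout was 405/460 nm fluorescence.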

[1] = system: P. aeruginosa MB9799 (efflux-, IMP-1 plasmid); assay type: cell-based, Pseudomonas aeruginosa; conditions: efflux − (MB9799) strain; imipenem at 2 μg/mL; in the presence of a class A, C, D serine β-lactamase inhibitor closely related to relebactam
Procedure, shortened: (§2)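 PAO1-derived isogenic pair (oprD+, inducible AmpC), efflux+ MB5919 or efflux− MB5890 parent, carrying an electroporated IMP-1 plasmid from a clinical isolate. Microbroth MIC with fixed imipenem and/or ceftazidime (usually CLSI breakpoint) plus fixed class A/C inhibitor; MBL inhibitor serially titrated, concentration restoring susceptibility recorded.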

[2] = system: P. aeruginosa MB9798 (efflux+, IMP-1 plasmid); conditions: for MB9798 MITC95 P. aeruginosa uM Efflux WT: efflux + (MB9798) strain, imipenem at 2 μg/mL, in the presence of a class A, C, D serine β-lactamase inhibitor closely related to relebactam; for Efflux ratio: fold difference between efflux+ (MB9798) and efflux− (MB9799) strains
Procedure, shortened: as §2

VIM-2 = VIM-2 (Escherichia coli, UniProt Q5U7L7); assay: biochemical; conditions: CCF2-FA fluorescence assay; read-out: VIM2 IC50
VIM-1 = VIM-1 (Pseudomonas aeruginosa (strain ATCC 15692 / DSM 22644 / CIP 104116 / JCM 14847 / LMG 12228 / 1C / PRS 101 / PAO1), UniProt A0A0F7KYQ8); assay: biochemical; conditions: CCF2-FA fluorescence assay, 2 hours at 25° C.; read-out: VIM1 IC50
Procedure, shortened: as §1

IMP-1 = IMP-1 (Serratia marcescens, UniProt P52699); assay: biochemical; conditions: CCF2-FA fluorescence assay, 2 hours at 25° C.; read-out: IMP1 IC50
Procedure, shortened: as §1

[3] = system: Escherichia coli expressing NDM-1 (CLB30016); assay type: cell-based; conditions: with imipenem 1 μg/ml; 95% inhibition of bacterial growth
Procedure, shortened: (§3)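 MITC95 denotes the minimal test-compound level that, combined with 1 μg/ml imipenem, blocks 95% of bacterial growth, measured by absorbance. Overnight-grown clinical isolates were diluted 1:100 in CAMHB and incubated with both agents at 35° C for 22–24 h.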

[4] = system: Serratia marcescens expressing IMP-1 (CL5741); assay type: cell-based; conditions: with imipenem 1 μg/ml; 95% inhibition of bacterial growth
Procedure, shortened: as §3

[5] = system: Klebsiella pneumoniae expressing VIM-1 (IHMA599644); assay type: cell-based; conditions: with imipenem 1 μg/ml; 95% inhibition of bacterial growth
Procedure, shortened: as §3

Chain of NDM-1 (C7C422 whole entry, looked up, species assumed): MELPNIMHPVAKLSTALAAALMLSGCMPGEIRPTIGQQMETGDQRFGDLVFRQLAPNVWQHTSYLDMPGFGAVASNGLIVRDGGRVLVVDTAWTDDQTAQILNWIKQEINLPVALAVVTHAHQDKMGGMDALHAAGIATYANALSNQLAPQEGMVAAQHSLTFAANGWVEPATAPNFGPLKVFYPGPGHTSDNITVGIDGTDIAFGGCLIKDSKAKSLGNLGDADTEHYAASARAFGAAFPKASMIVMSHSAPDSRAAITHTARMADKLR
Chain of IMP-1 (P52699 whole entry, looked up, species assumed): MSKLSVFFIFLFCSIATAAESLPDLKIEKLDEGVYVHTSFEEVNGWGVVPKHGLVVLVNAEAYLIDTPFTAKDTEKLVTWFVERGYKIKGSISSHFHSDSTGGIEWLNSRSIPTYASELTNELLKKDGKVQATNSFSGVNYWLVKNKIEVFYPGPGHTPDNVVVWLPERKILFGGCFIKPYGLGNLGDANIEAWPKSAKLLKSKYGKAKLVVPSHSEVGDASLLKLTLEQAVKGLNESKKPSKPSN

SMILES	IC50 (NDM-1) [nM]	MB9799 MITC95 P. aeruginosa uM Efflux Mutant [1] [µM]	MB9798 MITC95 P. aeruginosa uM Efflux WT [2] [µM]	Efflux ratio [2]	IC50 (VIM-2) [nM]	IC50 (VIM-1) [nM]	IC50 (IMP-1) [nM]	CLB30016 E. coli MITC95 NDM [3] [µM]	CL5741 S. marcescens MITC95 IMP [4] [µM]	IHMA599644 K. pneumoniae MITC95 VIM [5] [µM]
NCCC1CCN(c2ccc(S(=O)(=O)N[C@@H]3CCNC3)c(S(N)(=O)=O)c2-c2nn[nH]n2)CC1 [Example 16, (R)-4-(4-(2-aminoethyl)piperidin-1-yl)-N^1-(pyrrolidin-3-yl)-3-(2H-tetrazol-5-yl)benzene-1,2-disulfonamide]	0.72	0.78	0.78	1.00	1.61	0.08	1.85	1.17	1.56	1.56
C[C@H](CN)NS(=O)(=O)c1ccc(N2CC[C@@H](CN)[C@@H](F)C2)c(-c2nn[nH]n2)c1S(N)(=O)=O (racemic) [Example 8]	0.19	0.39	0.78	2.00	2.35	0.07	1.12	0.20	0.39	0.78
NS(=O)(=O)c1c(S(=O)(=O)C2CNC2)ccc(N2CCC(CCO)CC2)c1-c1nnn[nH]1 [Example 56, 6-(azetidin-3-ylsulfonyl)-3-[4-(2-hydroxyethyl)piperidin-1-yl]-2-(1H-tetrazol-5-yl)benzenesulfonamide]	0.76	1.56	6.25	4.00	0.82	0.25	0.45	6.25	3.13	6.25
C[C@@H](CN)NS(=O)(=O)c1ccc(N2CCC(O)(CN)CC2)c(-c2nn[nH]n2)c1S(N)(=O)=O [Example 18, (S)-4-(4-(aminomethyl)-4-hydroxypiperidin-1-yl)-N1-(1-aminopropan-2-yl)-3-(2H-tetrazol-5-yl)benzene-1,2-disulfonamide]	0.43	0.78	0.78	1.00	4.8	0.65	1.48	0.78	0.78	1.56
NC[C@@H](O)CNS(=O)(=O)c1ccc(N2CCC(C(N)CO)CC2)c(-c2nn[nH]n2)c1S(N)(=O)=O (single isomer, unassigned) [Example 181]	4.62	0.78	0.78	1.00	5.87	0.22	5.78	0.39	0.39	1.56
NC[C@@H](O)CNS(=O)(=O)c1ccc(N2CCNC(CO)C2)c(-c2nn[nH]n2)c1S(N)(=O)=O (stereo partly drawn) [Example 122, N1-((R)-3-amino-2-hydroxypropyl)-4-(3-(hydroxymethyl)piperazin-1-yl)-3-(2H-tetrazol-5-yl)benzene-1,2-disulfonamide]	14.3	0.78	1.56	2.00	6.86	3.34	24.4	0.20	0.39	0.78
NCC(CN)NS(=O)(=O)c1ccc(N2CCC(CO)CC2)c(-c2nnn[nH]2)c1S(N)(=O)=O [Example 45, N1-(1,3-diaminopropan-2-yl)-4-(4-(hydroxymethyl)piperidin-1-yl)-3-(1H-tetrazol-5-yl)benzene-1,2-disulfonamide]	0.27	1.56	1.56	1.00	0.74	0.23	0.52	1.56	3.13	3.13
NS(=O)(=O)c1c(S(=O)(=O)N[C@@H]2CCNC2)ccc(N2CCCC(C(=O)NCCCO)C2)c1-c1nnn[nH]1 (stereo partly drawn) [Example 108, N-(3-hydroxypropyl)-1-{4-[(3R)-pyrrolidin-3-ylsulfamoyl]-3-sulfamoyl-2-(1H-tetrazol-5-yl)phenyl}piperidine-3-carboxamide]	0.71	6.25	12.50	2.00	1.77	0.5	2.39	6.25	12.50	12.50
NC[C@H]1CCCN(c2ccc(S(=O)(=O)N[C@@H]3CCNC3)c(S(N)(=O)=O)c2-c2nnn[nH]2)C1 [Example 82, 4-[(3R)-3-(aminomethyl)piperidin-1-yl]-N1-[(3R)-pyrrolidin-3-yl]-3-(1H-tetrazol-5-yl)benzene-1,2-disulfonamide]	42.9	3.13	6.25	2.00	9.33	0.9	45.6	0.78	0.78	0.78
NC[C@@H](O)CNS(=O)(=O)c1ccc(N2CC[C@H](N)[C@H](F)C2)c(-c2nn[nH]n2)c1S(N)(=O)=O [Example 195, N1-((R)-3-amino-2-hydroxypropyl)-4-((3R,4S)-4-amino-3-fluoropiperidin-1-yl)-3-(2H-tetrazol-5-yl)benzene-1,2-disulfonamide]	1.51	0.78	0.78	1.00	2.86	0.14	4.27	0.20	0.20	0.39
NS(=O)(=O)c1c(S(=O)(=O)N[C@@H]2CCNC2)ccc(N2CCN(C(=O)CO)CC2)c1-c1nnn[nH]1 [Example 109, 4-[4-(hydroxyacetyl)piperazin-1-yl]-N1-[(3R)-pyrrolidin-3-yl]-3-(1H-tetrazol-5-yl)benzene-1,2-disulfonamide]	0.51	3.13	3.13	1.00	1.9	0.43	2.21	3.13	3.13	6.25
